From ChEMBL document CHEMBL2046271, “Terpenes from Copaifera demonstrated in vitro antiparasitic and synergic activity” (J Med Chem, 2012)
Activity calls are given as the source filed them. No cut-off for these calls is given here.

What was measured:
Trypanosoma cruzi [1] = experiment: Antitrypanosomal activity against Trypanosoma cruzi Y epimastigotes assessed as gated cells in upper left quadrant at 400 uM after 3 hrs by propidium iodide staining-based flow cytometric analysis (reference value: 3.76%); type: functional
Trypanosoma cruzi [2] = experiment: Antitrypanosomal activity against Trypanosoma cruzi Y epimastigotes assessed as gated cells in lower right quadrant at 400 uM after 3 hrs by rhodamine 123 staining-based flow cytometric analysis (reference value: 1.12%); type: functional
Trypanosoma cruzi [3] = experiment: Antitrypanosomal activity against Trypanosoma cruzi Y epimastigotes assessed as gated cells in upper left quadrant at 400 uM after 3 hrs by rhodamine 123 staining-based flow cytometric analysis (reference value: 1.54%); type: functional
Trypanosoma cruzi [4] = experiment: Antitrypanosomal activity against Trypanosoma cruzi Y epimastigotes after 96 hrs by neubauer chamber; type: functional, organism-based
Trypanosoma cruzi [5] = experiment: Antitrypanosomal activity against Trypanosoma cruzi Y epimastigotes assessed as gated cells in lower left quadrant at 400 uM after 3 hrs by propidium iodide staining-based flow cytometric analysis (reference value: 89.35%); type: functional
Trypanosoma cruzi [6] = experiment: Antitrypanosomal activity against Trypanosoma cruzi Y epimastigotes assessed as lipid peroxidation at 400 uM after 6 hrs; type: functional
Trypanosoma cruzi [7] = experiment: Antitrypanosomal activity against Trypanosoma cruzi Y epimastigotes assessed as gated cells in upper right quadrant at 400 uM after 3 hrs by propidium iodide staining-based flow cytometric analysis (reference value: 1.40%); type: functional
Trypanosoma cruzi [8] = experiment: Antitrypanosomal activity against Trypanosoma cruzi Y epimastigotes assessed as gated cells in lower right quadrant at 400 uM after 3 hrs by propidium iodide staining-based flow cytometric analysis (reference value: 5.41%); type: functional
Trypanosoma cruzi [9] = experiment: Antitrypanosomal activity against Trypanosoma cruzi Y epimastigotes assessed as gated cells in lower left quadrant at 400 uM after 3 hrs by rhodamine 123 staining-based flow cytometric analysis (reference value: 2.40%); type: functional
Trypanosoma cruzi [10] = experiment: Antitrypanosomal activity against Trypanosoma cruzi Y epimastigotes assessed as membranous vacuole formation in all body parts at compound IC50 concentration after 96 hrs by transmission electron microscopic analysis; type: functional, organism-based
[11] = Cytotoxicity against monkey LLC-MK2 cells after 96 hrs by sulforhodamine B assay; type: cell-based, Macaca mulatta; details: rhesus monkey
Trypanosoma cruzi [12] = experiment: Antitrypanosomal activity against Trypanosoma cruzi Y amastigotes infected in monkey LLC-MK2 cells after 96 hrs by Geimsa staining method; type: functional, organism-based; details: LLC-MK2, 96 h
Trypanosoma cruzi [13] = experiment: Antitrypanosomal activity against Trypanosoma cruzi Y trymastigotes infected in monkey LLC-MK2 cells after 24 hrs by Brenner counter method; type: functional, organism-based; details: LLC-MK2, 24 h
Trypanosoma cruzi [14] = experiment: Antitrypanosomal activity against Trypanosoma cruzi Y epimastigotes assessed as organelle disorganization at compound IC50 concentration after 96 hrs by transmission electron microscopic analysis; type: functional, organism-based
[15] = Toxicity in human RBC assessed as hemolysis after 3 hrs; type: cell-based, Erythrocyte; details: red blood cells
Trypanosoma cruzi [16] = experiment: Antitrypanosomal activity against Trypanosoma cruzi Y epimastigotes assessed as gated cells in upper right quadrant at 400 uM after 3 hrs by rhodamine 123 staining-based flow cytometric analysis (reference value: 94.94%); type: functional
[17] = Selectivity ratio of CC50 for monkey LLC-MK2 cells to IC50 for Trypanosoma cruzi Y amastigotes; type: ADME, cell-based; details: LLC-MK2 cells versus Trypanosoma cruzi Y amastigotes, read-out: Ratio CC50/IC50
Trypanosoma cruzi [18] = experiment: Antitrypanosomal activity against Trypanosoma cruzi Y infected in monkey LLC-MK2 cells assessed as reduction in number of amastigotes after 96 hrs by Geimsa staining method; type: functional; set-up: concentration or dose not given beside the values
Trypanosoma cruzi [19] = experiment: Antitrypanosomal activity against Trypanosoma cruzi Y trymastigotes infected in monkey LLC-MK2 cells after 24 hrs by Brenner counter method in presence of beta-hydroxycopalic; type: functional
Trypanosoma cruzi [20] = experiment: Antitrypanosomal activity against Trypanosoma cruzi Y trymastigotes infected in monkey LLC-MK2 cells after 24 hrs by Brenner counter method in presence of copalic; type: functional
Trypanosoma cruzi [21] = experiment: Antitrypanosomal activity against Trypanosoma cruzi Y epimastigotes assessed as kinetoplast disorganisation at compound IC50 concentration after 96 hrs by transmission electron microscopic analysis; type: functional, organism-based
Trypanosoma cruzi [22] = experiment: Antitrypanosomal activity against Trypanosoma cruzi Y epimastigotes assessed as formation of concentric membranous vacuoles at compound IC50 concentration after 96 hrs by transmission electron microscopic analysis; type: functional, organism-based
Trypanosoma cruzi [23] = experiment: Antitrypanosomal activity against Trypanosoma cruzi Y epimastigotes assessed as pronounced swelling of mitochondria at compound IC50 concentration after 96 hrs by transmission electron microscopic analysis; type: functional, organism-based
[24] = Toxicity in human RBC assessed as hemolysis at 1552 uM after 3 hrs; type: cell-based, Erythrocyte; details: red blood cells, read-out: Activity

SMILES	IC50 (Trypanosoma cruzi [4])	IC50 (Trypanosoma cruzi [12])	Activity (Trypanosoma cruzi [1])	Activity (Trypanosoma cruzi [2])	Activity (Trypanosoma cruzi [3])	Activity (Trypanosoma cruzi [5])	Activity (Trypanosoma cruzi [6])	Activity (Trypanosoma cruzi [7])	Activity (Trypanosoma cruzi [8])	Activity (Trypanosoma cruzi [9])	CC50 at 96 h [11]	EC50 (Trypanosoma cruzi [13])	HC50 at 3 h [15]	Activity (Trypanosoma cruzi [16])	selectivity ratio [17]	Activity (Trypanosoma cruzi [18])	further results
C[C@@H]1[C@H](O)[C@@H](C)/C=C/C=C/C=C/C=C/C=C/C=C/C=C/[C@H](O[C@@H]2O[C@H](C)[C@@H](O)[C@H](N)[C@@H]2O)C[C@@H]2O[C@](O)(C[C@@H](O)C[C@@H](O)[C@H](O)CC[C@@H](O)C[C@@H](O)CC(=O)O[C@H]1C)C[C@H](O)[C@H]2C(=O)O [AMPHOTERICIN B]	–	–	–	–	–	–	–	–	–	–	–	–	50.8 µM	–	–	–	–
O=C(Cn1ccnc1[N+](=O)[O-])NCc1ccccc1 [BENZNIDAZOLE]	6.5 µM	19.2 µM	–	–	–	–	–	–	–	–	615 µM	34.5 µM	> 1920 µM	–	32	–	fractional inhibitory concentration index (FICI) (Trypanosoma cruzi [19]): 1.01; fractional inhibitory concentration index (FICI) (Trypanosoma cruzi [20]): 0.95
C=C1CC/C=C(\C)CC[C@@H]2[C@@H]1CC2(C)C [BETA-CARYOPHYLLENE]	78.4 µM	63.7 µM	78.81%	15.47%	3.17%	9.53%	30%	11.4%	0.26%	52.01%	1720 µM	1590 µM	> 2450 µM	29.35%	26.9	25%	Activity (Trypanosoma cruzi [21]): Active; Activity (Trypanosoma cruzi [22]): Active; fractional inhibitory concentration index (FICI) (Trypanosoma cruzi [19]): 0.86; fractional inhibitory concentration index (FICI) (Trypanosoma cruzi [20]): 0.12
C=C1C[C@@]23CC[C@H]4[C@@](C)(CCC[C@@]4(C)C(=O)O)[C@@H]2CC[C@@H]1C3 [KAURENOIC ACID]	167 µM	16.5 µM	45.55%	0.96%	2.55%	22.65%	inactive	18.53%	13.27%	4.85%	76.1 µM	596 µM	464 µM	91.64%	4.6	38%	–

More lines, main results first:

IC50 (Trypanosoma cruzi [4])	IC50 (Trypanosoma cruzi [12])	SMILES	Activity (Trypanosoma cruzi [1])	Activity (Trypanosoma cruzi [2])	Activity (Trypanosoma cruzi [3])	Activity (Trypanosoma cruzi [5])	Activity (Trypanosoma cruzi [6])	Activity (Trypanosoma cruzi [7])	Activity (Trypanosoma cruzi [8])	Activity (Trypanosoma cruzi [9])	CC50 at 96 h [11]	EC50 (Trypanosoma cruzi [13])	HC50 at 3 h [15]	Activity (Trypanosoma cruzi [16])	selectivity ratio [17]	Activity (Trypanosoma cruzi [18])	further results
41.2 µM	1.8 µM	C=C1CC[C@@H]2C(C)(C)[C@@H](O)CC[C@@]2(C)[C@@H]1CC/C(C)=C/C(=O)O	73%	0.01%	24.06%	2.56%	inactive	24.29%	0.15%	2.27%	31.2 µM	453 µM	125 µM	73.66%	17.3	40%	Activity (Trypanosoma cruzi [10]): Active; Activity (Trypanosoma cruzi [14]): Active
86.8 µM	14.9 µM	C=C1CC[C@@H]2[C@](C)(CCC[C@]2(C)C(=O)O)[C@H]1CC/C(C)=C/C(=O)O [AGATHIC ACID]	50.32%	0.45%	13.37%	14.2%	inactive	32.97%	2.51%	2.07%	56.8 µM	823 µM	1050 µM	84.11%	3.8	38%	–
42.7 µM	1.3 µM	C=C1CC[C@@H]2C(C)(C)CCC[C@@]2(C)[C@@H]1CC/C(C)=C/C(=O)O [COPALIC ACID]	43.58%	0.1%	24.47%	5.17%	30%	50.54%	0.71%	2.86%	39.4 µM	444 µM	65.7 µM	72.57%	30.3	48%	Activity (Trypanosoma cruzi [23]): Active
83.3 µM	2.5 µM	C=C1CC[C@@H]2C(C)(C)CCC[C@@]2(C)[C@@H]1CC/C(C)=C/C(=O)OC [METHYL COPALATE]	2.62%	0.21%	0.64%	85.91%	inactive	2.25%	9.22%	0.66%	69.1 µM	377 µM	1600 µM	98.49%	27.6	38%	–
854 µM	18.6 µM	C=C1CC[C@@H]2[C@](C)(CCC[C@@]2(C)C(=O)O)[C@H]1CC[C@H](C)CC(=O)O [PINIFOLIC ACID]	3.78%	0.21%	0.81%	91.66%	inactive	0.71%	3.85%	1.02%	252 µM	1630 µM	> 1550 µM	97.96%	13.5	25%	hemolysis at 3 h, 1552 µM [24]: 8%
168 µM	28.4 µM	C=C1CC[C@@H]2[C@](C)(CCC[C@@]2(C)C(=O)O)[C@H]1CCc1ccoc1 [POLYALTIC ACID]	16.7%	0.91%	1.28%	26.71%	inactive	29.09%	25.8%	1.85%	60.1 µM	965 µM	> 1580 µM	95.96%	2.1	38%	–
